The OPERA property sets (Mansouri et al. 2018)

COc1ccc(NC(=O)Cc2ccccc2)cc1 showed a logP of 2.49.
Compound O=C(Cc1ccccc1)Nc1cccc(F)c1 has a logP of 3.1.
Work on N#Cc1cccc(NC(=O)Cc2ccccc2)c1 yielded a logP of 2.75.
Compound COc1ccccc1NC(=O)Cc1ccccc1 has a logP of 2.68.
For CCNc1cccc(NC(=O)Cc2ccccc2)c1, the logP was 2.59.
In the case of CC(=O)N(c1ccccc1)c1ccc(C)cc1, the logP is reported as 3.05.
O=C(Cc1ccccc1)Nc1ccc(O)cc1 showed a logP of 1.82.
Compound O=C(Cc1ccccc1)Nc1ccccc1 has a logP of 2.7.
O=C(Cc1ccccc1)Nc1ccccc1O gave a logP of 2.4.
O=C(Cc1ccccc1)Nc1cccc(Br)c1 gave a logP of 3.77.
Compound CCc1cccc(N(C(C)=O)c2ccccc2)c1 has a logP of 3.47.
Work on CC(=O)c1ccc(NC(=O)Cc2ccccc2)cc1 yielded a logP of 2.75.
Nc1cccc(NC(=O)Cc2ccccc2)c1 showed a logP of 1.59.
O=C(Cc1ccccc1)Nc1ccccc1F gave a logP of 2.62.
For O=C(Cc1ccccc1)Nc1ccc(Cl)cc1, the logP was 3.54.
Work on O=C(Cc1ccccc1)Nc1cccc([N+](=O)[O-])c1 yielded a logP of 2.93.
O=C(Cc1ccccc1)Nc1ccc(F)cc1 showed a logP of 2.86.
Nc1ccccc1NC(=O)Cc1ccccc1 showed a logP of 1.45.
CS(=O)(=O)Oc1cccc(NC(=O)Cc2ccccc2)c1 gave a logP of 2.32.
CNc1cccc(NC(=O)Cc2ccccc2)c1 showed a logP of 2.31.
Work on CC(=O)c1cccc(NC(=O)Cc2ccccc2)c1 yielded a logP of 2.62.
For CC(=O)Oc1cccc(NC(=O)Cc2ccccc2)c1, the logP was 2.37.
In the case of Cc1cccc(NC(=O)Cc2ccccc2)c1, the logP is reported as 3.14.
With O=C(Cc1ccccc1)Nc1ccc(Br)cc1 the logP was 3.7.
With O=C(Cc1ccccc1)Nc1cccc(O)c1 the logP was 2.22.
Compound O=C(Cc1ccccc1)Nc1ccccc1[N+](=O)[O-] has a logP of 2.73.
In the case of O=C(Cc1ccccc1)Nc1cccc(I)c1, the logP is reported as 3.91.
In the case of CCOc1cccc(NC(=O)Cc2ccccc2)c1, the logP is reported as 3.23.
With COc1cccc(NC(=O)Cc2ccccc2)c1 the logP was 2.86.
For O=C(Cc1ccccc1)Nc1ccc([N+](=O)[O-])cc1, the logP was 3.18.
